Laboratory results from patent US12570657B2, “Mesylate salts of heterocyclic cytokinins, compositions containing these derivatives and use thereof” (UNIVERZITA PALACKEHO V OLOMOUCI, priority 2020, dated 2026).

What was measured:
[1] = system: retinal epitelium cells ARPE-19; experiment: Cytotoxicity for non-cancer cells, resazurine reduction assay, ARPE-19
Procedure: It is used for viability testing of both bacterial and eukaryotic cells. […] Cultivation medium was DMEM with 10% FBS. Before the experiment, the cells were subcultured for 2 weeks. For the cytotoxicity evaluation, the cells were trypsinized and pipetted into 96 well plates (5000 cells per well in 80 microliters). After 24 hours, 5× concentrated solutions of the tested compounds in the medium were added. […] IC50 values were calculated from dose response curves using drc library for R programming environment.

HOS (human osteosarcoma) = experiment: In vitro cytotoxicity, Calcein AM assay, HOS; format: cell-based; settings: Homo sapiens, 72 h, 3-day Calcein-AM assay
Description: Because toxic compounds adversely affect cell metabolic processes, many standard cytotoxicity assays are based on measuring the rate of metabolism of various artificial substrates. The resulting product is then quantified, for example, by spectrometry. Assays can be easily modified for use in 96-well plates, A microtiter assay based on the quantification of Calcein AM metabolism was used to evaluate the cytotoxicity of cytokinins, for example meta-topolin, ortho-topolin, kinetin, BAP or its mesylate salts, but also a number of other cytokinin mesylate derivatives according to the invention. The test is widely used in drug screening programs and in chemosensitivity testing. In living cells, Calcein AM is enzymatically hydrolyzed and the accumulation of the resulting calcein is manifested by green fluorescence. […] These cells were maintained in standard DMEM or RPMI medium (Sigma, MO, USA) supplemented with heat-inactivated fetal bovine serum (10%) with 2 mM L-glutamine and penicillin-streptomycin (1%) under standard cell culture conditions (37° C., 5% CO2 in a humid environment) and subcultured two or three times a week using a standard trypsinization procedure. Approximately 10,000 cells in 80 μl of medium were seeded in a 96-well microtiter plate. After 12 hours of incubation, the compounds to be tested were added in 20 μl aliquots. Control cultures were treated with DMSO alone. […] After 72 hours of incubation, Calcein AM solution (Molecular Probes) was added to a final concentration of 1 μg/ml and the cells were incubated for another hour.
(§1) Cytoxicity of compounds was tested on panel of cell lines of different histogenetic and species origin.

[2] = system: HL-60 (promyelocytic, leukemia); experiment: In vitro cytotoxicity, Calcein AM assay, HL60; format: cell-based; settings: Homo sapiens, HL-60, 72 h, 3-day Calcein-AM assay
Outline: (§2)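 Cells in DMEM or RPMI plus 10% heat-inactivated FBS were treated with compounds for 72 h. Calcein accumulation after a 1 h Calcein AM pulse gave the viability signal.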

rose explants = experiment: In vitro and post vitro multiplication and rooting of rose; format: in vivo, Rosa multiflora; settings: for Number of roots per plant / Overall length of plant (cm): Ex vitro, after four weeks of acclimatising in peat; for Number of new shoots per explant / Number of roots per explant / Overall length of explant (cm) / number of flowers per explant: In vitro, 10 μM cytokinin, 8 weeks
Procedure: The aim of this experiment was to test whether the new compounds are of practical use in tissue culture practice. The multiplication rate was investigated and the post vitro effects on rooting were examined Rosa hybrida (pot rose cultivar) was cultured in 350 ml vessels with a screw on polycarbonate lid. Each culture vessel contained 100 ml autoclaved medium (120° C., 20 min). The cultures were maintained at 23±2° C. under a 16 h photoperiod at 40 μM·m^−2 s^−1 PAR. The basal medium (BMR) contained Murashige and Skoog (1962) macroelements, microelements and vitamins, 95 μM NaFeEDTA, 555 μM myo-inositol, 111 mM sucrose, 1.332 mM glycine, 684 μM L-glutamine and 7 g/l agar. This medium was supplemented with 10 μM BAP, mT, or 3MeOBAP, or the corresponding mesylate salts. The control medium didn't contain any cytokinin After a culture period of 8 weeks, the number of induced shoots per explant was determined, as well as root number/explant and total root length/explant. The roots were removed and the explants (shoot clusters) were planted in unfertilised peat. After four weeks of acclimatising in a fog unit, root number and root length was determined. As expected, a cytokinin free medium yielded almost no new shoots. The original shoot explant grew out as a good quality single shoot that rooted very well. […] Explants growing on cytokininin mesylates were characterized by a high multiplication index (a large number of new shoots) and were more rooted in comparison with free bases. The use of cytokinin mesylates led to an increase in all monitored parameters in plant culture compared to free cytokinin bases.

[3] = system: MCF-7 (breast adenocarcinoma); experiment: In vitro cytotoxicity, Calcein AM assay, MCF7; format: cell-based; settings: 3-day Calcein-AM assay
Outline: as §2

[4] = system: G361 (malignant melanoma); experiment: In vitro cytotoxicity, Calcein AM assay, G-361; format: cell-based; settings: Homo sapiens, 72 h, 3-day Calcein-AM assay
Description: Because toxic compounds adversely affect cell metabolic processes, many standard cytotoxicity assays are based on measuring the rate of metabolism of various artificial substrates. The resulting product is then quantified, for example, by spectrometry. Assays can be easily modified for use in 96-well plates, A microtiter assay based on the quantification of Calcein AM metabolism was used to evaluate the cytotoxicity of cytokinins, for example meta-topolin, ortho-topolin, kinetin, BAP or its mesylate salts, but also a number of other cytokinin mesylate derivatives according to the invention. The test is widely used in drug screening programs and in chemosensitivity testing. In living cells, Calcein AM is enzymatically hydrolyzed and the accumulation of the resulting calcein is manifested by green fluorescence. The following cell lines—RPMI 8226 (multiple myeloma), CEM (T-lymphoblastic leukemia), K562 (chronic myeloid leukemia), HL-60 (promyelocytic, leukemia), MCF-7 (breast adenocarcinoma), HeLa (cervical cancer), G361 (malignant melanoma), HOS (human osteosarcoma) and BJ (human foreskin fibroblasts)—were obtained from the American Type Culture Collection (Manassas, VA, USA). These cells were maintained in standard DMEM or RPMI medium (Sigma, MO, USA) supplemented with heat-inactivated fetal bovine serum (10%) with 2 mM L-glutamine and penicillin-streptomycin (1%) under standard cell culture conditions (37° C., 5% CO2 in a humid environment) and subcultured two or three times a week using a standard trypsinization procedure. Approximately 10,000 cells in 80 μl of medium were seeded in a 96-well microtiter plate. After 12 hours of incubation, the compounds to be tested were added in 20 μl aliquots. Control cultures were treated with DMSO alone. […] Serial, 3-fold dilutions (six in total, peak concentrations in 166 μM incubations) of each compound were tested. After 72 hours of incubation, Calcein AM solution (Molecular Probes) was added to a final concentration of 1 μg/ml and the cells were incubated for another hour. Free calcein fluorescence was then quantified using a Fluoroscan Ascent fluorometer (Microsystems), and the percentage of surviving cells in each well was calculated by dividing the OD obtained from each cell by the exposed cells by the mean OD obtained from control wells×100%, Finally, IC50 values (concentration causing a 50% decrease in cellular esterase activity) were calculated for each compound generated from dose-response curves (Krys̆tof et al., 2005, Bioorg. Med. Chem. Lett. 12, 3283-3286). The IC50 values reported here are averages obtained from at least three independent experiments, where the individual replication values fell within 20% of the average. Growth inhibition was calculated using the following equation: […](mean FDwell exposed to drug−mean FDblank)/(mean FDcontrol well−mean FDblank)×100%.
as §1

[5] = resazurin, 72 hour treatment, ARPE-19

Compound	Cytotoxicity for Fibroblasts (GI20) ARPE-19 ([1]; human, 72 h)	IC50 (HOS (human osteosarcoma))	IC50 [2]	Number of roots per plant (rose explants)	Overall length of plant (cm) (rose explants)	Number of roots per plant (rose explants; listed as 6-benzylaminopurine)	Number of new shoots per explant (rose explants)	Number of roots per explant (rose explants)	Overall length of explant (cm) (rose explants)	number of flowers per explant (rose explants)	Number of new shoots per explant (rose explants; listed as 6-benzylaminopurine)	IC50 ([3]; Homo sapiens, MCF7, 72 h)	Cytotoxicity for Fibroblasts (GI20) ARPE-19 [1, 5]	IC50 [4]	IC50 ([3]; mesylate)
c1ccc(CNc2ncnc3nc[nH]c23)cc1 [BAP, 6-benzylaminopurine]	>100 μM	> 167 µM	> 167 µM	rooted badly	1.1 cm	0.6	high shoot multiplication rate	0.0	0.0 cm	0.00	3.8	166 µM			
Oc1cccc(CNc2ncnc3nc[nH]c23)c1 [meta-topolin (mT), 6-(3-hydroxybenzylamino)purine]		> 167 µM	79.2 µM	1.4	3.8 cm		2.1	0.0	0.0 cm	0.16		> 167 µM	>100 μM	> 167 µM	
Oc1ccccc1CNc1ncnc2nc[nH]c12 [ortho-topolin (oT), 6-(2-hydroxybenzylamino)purine]		> 167 µM	78 µM									> 167 µM	>100 μM	103 µM	
COc1cccc(CNc2ncnc3nc[nH]c23)c1 [3MeOBAP, 6-(3-methoxybenzylamino)purine]		> 167 µM	> 167 µM	1.7	4.1 cm		4.3	0.0	0.0 cm	0.03		> 167 µM		125 µM	
CS(=O)(=O)O.c1ccc(CNc2ncnc3nc[nH]c23)cc1 [BAP mesylate, 6-benzylaminopurine mesylate]				0.9	1.4 cm		4.1	0.0	0.0 cm	0.00			>100 μM		> 167 µM
CS(=O)(=O)O.Oc1cccc(CNc2ncnc3nc[nH]c23)c1 [mT mesylate, 6-(3-hydroxybenzylamino)purine mesylate]				1.8	4.3 cm		2.4	0.0	0.0 cm	0.17			>100 μM		
